Source: patent publication US20170073306A1, “POTENT INHIBITORS OF HUMAN CARBONIC ANHYDRASE II AND BOVINE CARBONIC ANHYDRASE II AND THEIR MECHANISM OF ACTION” (priority 2015, published 2017)
Read-outs that look alike come from different tables or passages of the source.

Key:
[1] = biological target: T1, Bovine Carbonic Anhydrase-II (bovine erythrocyte CA-II) (Bos taurus, UniProt P00921); assay: Bovine carbonic anhydrase-II inhibition, 4-nitrophenyl acetate spectrophotometric assay; format: biochemical
T1 construct: pure bovine erythrocyte CA-II; from tissue; host or cells: bovine erythrocytes
T1 sequence (P00921 whole entry): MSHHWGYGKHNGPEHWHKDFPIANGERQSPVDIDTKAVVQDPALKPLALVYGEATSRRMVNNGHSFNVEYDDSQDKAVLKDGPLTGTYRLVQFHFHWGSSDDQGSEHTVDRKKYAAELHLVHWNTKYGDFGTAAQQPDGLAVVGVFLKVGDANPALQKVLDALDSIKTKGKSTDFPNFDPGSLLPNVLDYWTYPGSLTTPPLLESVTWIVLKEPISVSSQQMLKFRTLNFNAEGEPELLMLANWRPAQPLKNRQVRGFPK
Description: (§1) Nineteen different analogues of benzamide sulfonamides were evaluated for carbonic anhydrase-II inhibition. The rate of catalyzed reaction was monitored by the amount of product formation by using the chromogenic substrate i.e., 4-nitrophenyl acetate.
4-Nitrophenyl acetate (4-NPA) is a colorless compound which is used as a substrate in carbonic anhydrase inhibition assay. The reaction involves the hydrolysis of 4-nitrophenyl acetate into […] and 4-nitrophenol a yellow colored compound. During this experiment, HEPES-tris buffer was used at 20 mM concentration with pH 7.4.
After 15 min of incubation of the enzyme with the test compound, the substrate was added to initiate the reaction. The reaction was carried out in triplicate with different concentrations of test compounds was used.
In this assay protocol, the reaction was performed by using a 96-well flat bottom plate.
The amount of product formation was measured at 400 nm for 30 min with 1 min interval, multiplate reader SPECTRA max 340 (Molecular Devices, CA, USA) was used to monitor the product formation.
The enzyme inhibitory activities were calculated using the following formula:
% Inhibition=100−(O.D of test/O.D of control)*100
(§2) Where test is the enzyme activity with sample and control is the enzyme activity without sample. The IC50 of the compounds were calculated by using EZ-Fit Enzyme Kinetic Program (Perrella Scientific Inc. Amhrest, U.S.A).

[2] = biological target: T2, Human Carbonic Anhydrase-II (human erythrocyte CA-II) (Homo sapiens, UniProt P00918); assay: HCA-II inhibitory activity, 4-nitrophenyl acetate spectrophotometric assay; format: biochemical; conditions: 4-nitrophenyl acetate 0.7 mM, pH 7.4, 25° C., 15 min preincubation; read-out: IC50 ± S.E.M. HCA-II
T2 construct: purified human erythrocyte CA-II; from tissue; host or cells: human erythrocytes
Description: as §1
Hydrolysis of 4-NPA (a colorless compound): yields 4-nitrophenol and […]. The reaction is monitored by quantifying the formation of 4-nitrophenol, a yellow colored compound.
In successive experiments, HEPES-tris was used as a buffer for the reaction at final concentration of 20 mM, with 7.4 pH. The total reaction volume of 200 μL includes, 140 μL of the HEPES-tris, 20 μL of test compound diluted in DMSO (20 μL of DMSO as a control sample), 20 μL of purified human erythrocyte CA-II (0.1 mg/mL) prepared in deionized water and 20 μL of a solution of 4-NPA (0.7 mM diluted in ethanol). Adhesion of enzyme with the plastic-ware was avoided by the addition of bovine serum albumin (1 mg/mL).
The 20 μL of test compound was incubated with enzyme for a period of 15 min. The rate of product formation was monitored with the addition of 20 μL substrate prepared in ethanol at a final concentration of 0.7 mM 4-nitrophenyl acetate at 25° C. for a period of 30 min with regular interval of 1 min.
The assay was performed in triplicates by using 96-well flat bottom plate.
The enzyme inhibitory activities were calculated using the following formula: […]
as §2

MTT cytotoxicity assay = format: cell-based; conditions: mouse, 3T3 mouse fibroblast cells, 3T3 cells, 50% growth inhibition, read-out: Cytotoxicity IC50 ± SD
Description: Cytotoxicity studies were performed using a colorimetric assay that measures the reduction of 3-(4,5-dimethythiazol-2-yl)-2,5-diphenyl tetrazolium bromide (MTT) (yellow in color), by mitochondrial enzyme (i.e. succinate dehydrogenase). The MTT enters into the mitochondria of cell, where it is reduced to an insoluble formazan salt (purple in color). The extent of MTT reduction to formazan within cells was measured spectrophotometrically. As reduction of MTT can only occur in metabolically active cells the level of activity is actually a measure of the viability of the cells^22.
Mouse fibroblast cell line 3T3 was cultured in DMEM, supplemented with 5% of FBS, 100 IU/ml of penicillin and 100 μg/ml of streptomycin, and kept at 37° C. in 5% CO2 incubator. For the preparation of cell culture 100 μL/well of cell solution (5×10^4 cells/ml) was added into 96-well plate. The plate was incubated for overnight, and fresh medium was added after the removal of old medium. The test compounds were also added in different concentrations into the plate and plate was again incubated for 48 hrs. After the completion of this incubation period 200 μL MTT (0.5 mg/ml) was added and plate was again incubated for 4 hrs, after this final incubation 100 μL of DMSO was added to each well. The level of MTT reduction to formazan was evaluated by change in absorbance at 540 nm using a micro plate reader (Spectra Max plus, Molecular Devices, CA, USA).

[3] = biological target: T3, Bovine Carbonic Anhydrase-II (Bos taurus, UniProt P00921); assay: Kinetics studies (Lineweaver-Burk, Dixon plots) against Bovine Carbonic Anhydrase-II; format: biochemical; parameters: Vmax app: unit not given here; conditions: for Type of Inhibition: Lineweaver-Burk / Dixon plots; for Vmax app: apparent Vmax with inhibitor (0.2-0.00625 μM); for Vmax: enzyme Vmax without inhibitor
T3 construct: pure bovine erythrocyte CA-II; from tissue; host or cells: bovine erythrocytes
T3 sequence (P00921 whole entry): as above
Description: FIG. 2B depicts the double reciprocal plot for Ki determination which is between Slope Vs Inhibitor Conc.
FIG. 3B depicts the double reciprocal plot for Ki determination which is between Slope Vs Inhibitor Conc.
Kinetics studies were performed for each analogue. […] The Grafit version 7.0 was used for the construction of Lineveawer-Burk plots and their secondary replots.

[4] = 4-nitrophenyl acetate 0.7 mM, pH 7.4, 15 min preincubation, read-out: IC50 ± S.E.M. BCA-II
[5] = from secondary replots / Dixon plot, read-out: Ki

NS(=O)(=O)c1ccc(NC(=S)NC(=O)c2cccc([N+](=O)[O-])c2)cc1 [Compound 6, 3-Nitro-N-(4-sulfamoylphenylcarbamothioyl)benzamide]
IC50 [1, 4]: 80 ± 4 nM | IC50 [2]: 190 ± 1 nM | IC50 at 48 h (MTT cytotoxicity assay): > 30000 nM | Type of Inhibition [3]: Mixed type | Vmax app [3]: 17.48 | Vmax [3]: 82.64 (μM/L/min)^−1 | Ki [3, 5]: 90 nM

NS(=O)(=O)c1ccc(NC(=S)NC(=O)c2ccc(F)cc2)cc1 [Compound 13, 4-Fluoro-N-(4-sulfamoylphenylcarbamothioyl)benzamide]
IC50 [1, 4]: 130 ± 20 nM | IC50 [2]: 580 ± 1 nM | IC50 at 48 h (MTT cytotoxicity assay): > 30000 nM

Cc1ccc(C(=O)NC(=S)Nc2ccc(S(N)(=O)=O)cc2)cc1 [Compound 3, 4-Methyl-N-(4-sulfamoylphenylcarbamothioyl)benzamide]
IC50 [1, 4]: 80 ± 3 nM | IC50 [2]: 90 ± 30 nM | IC50 at 48 h (MTT cytotoxicity assay): > 30000 nM | Type of Inhibition [3]: Mixed type | Vmax app [3]: 52.63 | Vmax [3]: 80 (μM/L/min)^−1 | Ki [3, 5]: 58 nM

NS(=O)(=O)c1ccc(NC(=S)NC(=O)C2CCCO2)cc1 (stereo not drawn) [Compound 17, N-(4-Sulfamoylphenylcarbamothioyl)tetrahydrofuran-2-carboxamide]
IC50 [1, 4]: 120 ± 20 nM | IC50 [2]: 270 ± 60 nM | IC50 at 48 h (MTT cytotoxicity assay): > 30000 nM | Type of Inhibition [3]: Mixed type | Vmax app [3]: 26.88 | Vmax [3]: 111.11 (μM/L/min)^−1 | Ki [3, 5]: 59 nM

NS(=O)(=O)c1ccc(NC(=S)NC(=O)c2ccc([N+](=O)[O-])cc2Cl)cc1 [Compound 15, 2-Chloro-4-nitro-N-(4-sulfamoylphenylcarbamothioyl)benzamide]
IC50 [1, 4]: 60 ± 1 nM | IC50 [2]: 160 ± 10 nM | IC50 at 48 h (MTT cytotoxicity assay): > 30000 nM

NS(=O)(=O)c1ccc(NC(=S)NC(=O)Cc2ccccc2)cc1 [Compound 8, 2-Phenyl-N-(4-sulfamoylphenylcarbamothioyl)acetamide]
IC50 [1, 4]: 70 ± 3 nM | IC50 [2]: 160 ± 1 nM | IC50 at 48 h (MTT cytotoxicity assay): > 30000 nM | Type of Inhibition [3]: Mixed type | Vmax app [3]: 7.77 | Vmax [3]: 81.30 (μM/L/min)^−1 | Ki [3, 5]: 35 nM

NS(=O)(=O)c1ccc(NC(=S)NC(=O)c2ccccc2)cc1 [Compound 1, N-(4-Sulfamoylphenylcarbamothioyl)benzamide]
IC50 [1]: 90 ± 7 nM | IC50 at 48 h (MTT cytotoxicity assay): > 30000 nM | Ki [3]: 52 nM | Type of Inhibition [3]: Noncompetitive | Vmax [3]: 99.00 (μM/L/min)^−1

CCC(C(=O)NC(=S)Nc1ccc(S(N)(=O)=O)cc1)c1ccccc1 (stereo not drawn) [Compound 18, 2-Phenyl-N-(4-sulfamoylphenylcarbamothioyl)butanamide]
IC50 [1, 4]: 200 ± 1 nM | IC50 [2]: 250 ± 10 nM | IC50 at 48 h (MTT cytotoxicity assay): > 30000 nM | Type of Inhibition [3]: Mixed type | Vmax app [3]: 12.93 | Vmax [3]: 42.73 (μM/L/min)^−1 | Ki [3, 5]: 160 nM

NS(=O)(=O)c1ccc(NC(=S)NC(=O)c2ccc(Cl)cc2)cc1 [Compound 2, 4-Chloro-N-(4-sulfamoylphenylcarbamothioyl)benzamide]
IC50 [1, 4]: 160 ± 2 nM | IC50 [2]: 210 ± 10 nM | IC50 at 48 h (MTT cytotoxicity assay): > 30000 nM | Type of Inhibition [3]: Noncompetitive | Vmax app [3]: 18.45 | Vmax [3]: 80 (μM/L/min)^−1 | Ki [3, 5]: 110 nM

NS(=O)(=O)c1ccc(NC(=S)NC(=O)c2cccc(Cl)c2)cc1 [Compound 5, 3-Chloro-N-(4-sulfamoylphenylcarbamothioyl)benzamide]
IC50 [1, 4]: 140 ± 6 nM | IC50 [2]: 280 ± 60 nM | IC50 at 48 h (MTT cytotoxicity assay): > 30000 nM | Type of Inhibition [3]: Noncompetitive | Vmax app [3]: 25.83 | Vmax [3]: 76.33 (μM/L/min)^−1 | Ki [3, 5]: 250 nM

NS(=O)(=O)c1ccc(NC(=S)NC(=O)c2ccc(Cl)cc2Cl)cc1 [Compound 19, 2,4-Dichloro-N-(4-sulfamoylphenylcarbamothioyl)benzamide]
IC50 [1, 4]: 60 ± 1 nM | IC50 [2]: 100 ± 40 nM | IC50 at 48 h (MTT cytotoxicity assay): > 30000 nM | Vmax app [3]: 12.33 | Vmax [3]: 79.36 (μM/L/min)^−1 | Ki [3, 5]: 46 nM

NS(=O)(=O)c1ccc(NC(=S)NC(=O)c2ccc([N+](=O)[O-])cc2)cc1 [Compound 4, 4-Nitro-N-(4-sulfamoylphenylcarbamothioyl)benzamide]
IC50 [1, 4]: 130 ± 2 nM | IC50 [2]: 240 ± 40 nM | IC50 at 48 h (MTT cytotoxicity assay): > 30000 nM | Type of Inhibition [3]: Noncompetitive | Vmax app [3]: 18.97 | Vmax [3]: 53.19 (μM/L/min)^−1 | Ki [3, 5]: 220 nM

COc1cc(OC)cc(C(=O)NC(=S)Nc2ccc(S(N)(=O)=O)cc2)c1 [Compound 16, 3,5-Dimethoxy-N-(4-sulfamoylphenylcarbamothioyl)benzamide]
IC50 [1, 4]: 110 ± 5 nM | IC50 [2]: 230 ± 30 nM | IC50 at 48 h (MTT cytotoxicity assay): > 30000 nM | Type of Inhibition [3]: Noncompetitive | Vmax app [3]: 37.31 | Vmax [3]: 72.46 (μM/L/min)^−1 | Ki [3, 5]: 400 nM

NS(=O)(=O)c1ccc(NC(=S)NC(=O)c2ccc(Cl)cc2[N+](=O)[O-])cc1 [Compound 12, 4-Chloro-2-nitro-N-(4-sulfamoylphenylcarbamothioyl)benzamide]
IC50 [1, 4]: 280 ± 7 nM | IC50 [2]: 460 ± 30 nM | IC50 at 48 h (MTT cytotoxicity assay): > 30000 nM | Type of Inhibition [3]: Mixed type | Vmax app [3]: 34.12 | Vmax [3]: 108.69 (μM/L/min)^−1 | Ki [3, 5]: 24 nM

Cc1cccc(C(=O)NC(=S)Nc2ccc(S(N)(=O)=O)cc2)c1 [Compound 10, 3-Methyl-N-(4-sulfamoylphenylcarbamothioyl)benzamide]
IC50 [1, 4]: 90 ± 2 nM | IC50 [2]: 190 nM | IC50 at 48 h (MTT cytotoxicity assay): > 30000 nM | Type of Inhibition [3]: Noncompetitive | Vmax app [3]: 10.61 | Vmax [3]: 62.5 (μM/L/min)^−1 | Ki [3, 5]: 67 nM

Cc1ccccc1C(=O)NC(=S)Nc1ccc(S(N)(=O)=O)cc1 [Compound 9, 2-Methyl-N-(4-sulfamoylphenylcarbamothioyl)benzamide]
IC50 [1, 4]: 80 ± 2 nM | IC50 [2]: 180 ± 4 nM | IC50 at 48 h (MTT cytotoxicity assay): > 30000 nM | Type of Inhibition [3]: Noncompetitive | Vmax app [3]: 14.61 | Vmax [3]: 90.90 (μM/L/min)^−1 | Ki [3, 5]: 58 nM

NS(=O)(=O)c1ccc(NC(=S)NC(=O)c2ccccc2[N+](=O)[O-])cc1 [Compound 7, 2-Nitro-N-(4-sulfamoylphenylcarbamothioyl)benzamide]
IC50 [1, 4]: 60 ± 5 nM | IC50 [2]: 120 ± 2 nM | IC50 at 48 h (MTT cytotoxicity assay): > 30000 nM | Type of Inhibition [3]: Mixed type | Vmax app [3]: 19.30 | Vmax [3]: 71.42 (μM/L/min)^−1 | Ki [3, 5]: 140 nM

COc1cc(C(=O)NC(=S)Nc2ccc(S(N)(=O)=O)cc2)cc(OC)c1OC [Compound 14, 3,4,5-Trimethoxy-N-(4-sulfamoylphenylcarbamothioyl)benzamide]
IC50 [1, 4]: 60 nM | IC50 [2]: 170 ± 2 nM | IC50 at 48 h (MTT cytotoxicity assay): > 30000 nM
